Tests used:
binding of ER to ELK1 = assay: SPR competition: inhibition of binding of ER (analyte) to immobilized ELK1; conditions: ER 200 nM, compound 0-32 uM
Experimental: A fixed concentration of ER (200 nM) was combined with 5,3′-Dihydroxyflavone diluted in a series (0, 1, 2,4, 8, 16, and 32 uM).
A fixed concentration of ER (200 nM) was combined with 5,3′-Dihydroxyflavone diluted in a series (0, 1, 2, 4, 8, 16, and 32 uM). […] This explains the ability of the compound to inhibit the estrogen-dependent growth of breast cancer cells, as ELK1 is required for estrogen-dependent growth of breast cancer cells.

[1] = tested on: hormone-independent promoter activation by the splice variant AR-V7; assay: Gal4-ELK1 reporter activation by AR-V7 in transfected HeLa cells; assay type: cell-based; conditions: 10 uM or 20 uM
Experimental: FIG. 10 is a graph showing results of co-transfection of HeLa cells with the Gal4-TATA-Luc construct and the Gal4-ELK1 fusion protein expression plasmid. The cells were also co-transfected with either the AR-V7 expression plasmid (pLVX-AR-V7) or the corresponding vector plasmid (pLVX). At the time of transfection with AR-V7, the cells were also treated with KCI807 (10 uM or 20 uM) or with the vehicle control. Promoter activity was measured in terms of reporter luciferase activity. In all panels, the error bars represent standard deviation of experimental triplicates. *P<0.05
Hela Cells were plated in a 24-well plate at a concentration of 75,000 cells/well in antibiotic-free red DMEM. The following day the cells were transfected with a total of 300 ng of plasmid DNA/well using Lipofectamine 2000. The cells were incubated for 24h then lysed using luciferase assay lysis buffer 5X from Promega. The luciferase activity of the cell lysates were measured using firefly substrate from Promega and a luminometer (Lumat LB9501, Berthold, Wildbad, Germany).
The relatively higher concentrations of the compound required for this inhibition is likely because AR-V7 was overexpressed in the assay system.

[2] = tested on: H1650 (lung adenocarcinoma cells), AR-negative; assay: Cell monolayer growth assay (MTT); assay type: cell-based
Experimental: FIG. 12D is a graph showing the effect of KCI807 on in vitro growth of AR-negative cell line H1650 cells measured by the MTT assay. All values were plotted relative to the Day zero value. Cells were trypsinized and 3000-4000 cells/well were seeded in 96-well plates coated with poly-D-lysine. The cells were seeded in phenol red-free medium supplemented with 10% FBS, 100 units/ml penicillin, 100 μg/ml streptomycin, 2 mM L-glutamine mixture and sodium pyruvate (1 mM) for LNCaP cells and phenol red-free medium supplemented with 10% FBS, 100 units/ml penicillin, 100 μg/ml streptomycin and 2 mM L-glutamine mixture for VCaP, 22Rv1, DU145, HeLa, HEK293 and H1650 cells. The cells were grown at 37° C. in 5% CO2. Twenty four hours after seeding in the 96-well plates, the cells were treated with the indicated concentration of KCI807 or DMSO (vehicle). The cells were re-treated on Day 3 by removing half the volume of medium and replacing it with fresh treated medium. Cell viability was determined using the MTT assay from day zero until day five. MTT (10 μL, 5 mg/mL) was added to each well and incubated for 2h at 37° C. The formazan crystal sediments were dissolved in 100 μL of DMSO, and the absorbance at 570 nm was measured using the BioTek Synergy 2 Microplate Reader (BioTek, Winooski, Vt.). The assay was conducted in sextuplicate wells and values were normalized to day zero.

[3] = Metabolite identification in serum of treated mice by LC-MS/MS; assay type: in vivo, mouse; conditions: 250 mg/kg every other day
Description: To identify potential metabolites of KCI807 in mice, serum and liver samples collected from the control (untreated) and KCI807-treated mice were subjected to the LC-MS/MS analysis. Sample preparation and chromatographic separation were the same as that described above. Column eluents of the control and drug-treated samples were surveyed using different scan modes including full scan, product scan, and multiple reaction monitoring scan. […] The […] was operated under the optimized condition as for KCI807, and hypothesized theoretical mass transitions for potential metabolites were monitored (see Tables 3 and 4).
If a chromatographic peak monitored at the theoretical transition(s) corresponding to a particular metabolite was identified in the drug-treated samples but not in the control (untreated) samples, this metabolite was identified as a metabolite of KCI807, see FIG. 20.
Serum from mice that were injected with 250 mg/kg of 5,3′-Dihydroxyflavone every other day for two weeks was analyzed to identify potential metabolites by LCMS using hypothesized mass transitions. […]

[4] = Body weight and condition of mice in the PDX-PR011 xenograft study; conditions: for % body weight lost/gained: PDX-PR011 study

Compound: O=c1cc(-c2cccc(O)c2)oc2cccc(O)c12 [KCI807, 5,3′-dihydroxyflavone]
- inhibition of binding of ER to immobilized ELK1 (binding of ER to ELK1): inhibits the binding of ER to ELK1
- inhibition of promoter activation by AR-V7 [1]: inhibited
- growth of H1650 cells [2]: did not appreciably affect the growth
- major metabolites / compounds identified in plasma or serum [3]: glucuronidation and other modifications at the 3′ position
- major metabolites / compounds identified in plasma or serum ([3]; listed as 5,3′-Dihydroxyflavone): Unmetabolized compound and a single glucuronide metabolite modified at the 3′-OH position
- % body weight lost/gained ([4]; Day 1 after tumor implant): 0%
- % body weight lost/gained ([4]; Day 2 after tumor implant): −3.8%
- % body weight lost/gained ([4]; Day 3 after tumor implant): −4.6%
- % body weight lost/gained ([4]; Day 4 after tumor implant): −2.3%
- % body weight lost/gained ([4]; Day 5 after tumor implant): −2.3%
- % body weight lost/gained ([4]; Day 6 after tumor implant): −1.5%
- % body weight lost/gained ([4]; Day 7 after tumor implant): 0%
- % body weight lost/gained ([4]; Day 8 after tumor implant): −1.5%
- % body weight lost/gained ([4]; Day 9 after tumor implant): +0.8%
- % body weight lost/gained ([4]; Day 10 after tumor implant): +0.8%
- % body weight lost/gained ([4]; Day 11 after tumor implant): +1.5%
- % body weight lost/gained ([4]; Day 12 after tumor implant): +3.1%
- symptoms during the study, PDX-PR011 xenograft ([4]; mouse, in vivo): asymptomatic
- weight loss (in words), PDX-PR011 xenograft ([4]; mouse, in vivo): did not show appreciable weight loss

From patent US11185527B2, “Methods and compositions relating to steroid hormone receptor-dependent cancers” (Wayne State University, priority 2017, dated 2021)
